How the values were obtained:
[1] = Solubility of salt compared to free acid (methanol rinse); assay type: physicochemical
Description: The neutralized product was then rinsed several times with methanol to remove by-product acids, or any salts formed therefrom, while leaving the 2,4-pentanedione-1,5-sodium disulfonate primarily undissolved. […] The rinsed product was dried in a vacuum oven and filtered through a 300 mesh screen to afford a flowing pale orange/red powder. The resulting powder was 2,4-pentanedione-1,5-sodium disulfonate.

skeletonema costatum = assay: Algae toxicity, ISO 10253 (HOCNF); assay type: in vivo; details: amount required to kill or incapacitate half the test population
Description: (§1) According to still other embodiments described herein, a disulfonate salt of 2,4-pentanedione is provided. According to one such embodiment, the salt comprises 2,4-pentanedione-1,5-sodium disulfonate. According to another such embodiment, a disulfonate salt of 2,4-pentanedione has an environmentally acceptable toxicity. As used herein, the term “environmentally acceptable toxicity” means that, when tested according to procedures that are the same as or equivalent to those set forth by the OSPAR Guidelines for Completing the Harmonised Offshore Chemical Notification Format (HOCNF) (References number: 2003-1) that were in effect on Dec. 31, 2004, the salt is determined to have a toxicity of greater than about 10,000 mg/L for an algae (skeletonema costatum), a crustacean (acartia tonsa), a fish (scopthalmus) and a sediment reworker (corophium volutator). […]
(§2) In this Example 3, the toxicity results for the skeletonema costatum were determined according to ISO (International Organization for Standardization) 10253, the protocol for which is known to those of ordinary skill in the art, and is also the protocol required under the above-referenced HOCNF Guidelines. The toxicity results for the acartia tonsa were determined according to ISO 14669, the protocol for which is known to those of ordinary skill in the art. […]

scopthalmus = assay: Fish toxicity, Part B of the OSPAR Protocols; assay type: in vivo; details: amount required to kill or incapacitate half the test population
Description: as §1, §2

acartia tonsa = assay: Crustacean toxicity, ISO 14669; assay type: in vivo; details: amount required to kill or incapacitate half the test population
Description: as §1, §2

corophium volutator = assay: Sediment reworker toxicity, Part B of the OSPAR Protocols; assay type: in vivo; details: amount required to kill or incapacitate half the test population
Description: as §1, §2

O=C(CC(=O)CS(=O)(=O)[O-])CS(=O)(=O)[O-].[Na+].[Na+] [2,4-pentanedione-1,5-sodium disulfonate]
solubility compared to the 2,4-pentanedione-1,5-disulfonic free acid [1]: significantly less soluble
toxicity (skeletonema costatum): greater than 10,000 mg/L
toxicity (scopthalmus): greater than 10,000 mg/L
toxicity (acartia tonsa): greater than 10,000 mg/L
toxicity (corophium volutator): greater than 10,000 mg/L

— patent publication US7258738B2, “Cementing compositions including salts” (Halliburton Energy Services, Inc., priority 2005, dated 2007)
